Data: patent US20120079993A1, “B[…]” (UNIVERSITY OF DURHAM, priority 2010, published 2012)

How the values were obtained:
Balb/c mice = test: Open space anxiety test: elevated platform with steep slopes; details: amphetamine 5 and 10 mg/kg vs diazepam 0.5, 1 and 3 mg/kg
mouse or rat = test: Elevated platform at 75 cm height: falling from the platform and locomotion; type: in vivo; details: 0.2 mg/kg i.p.; platform at 75 cm height
Description: Most mice and rats do jump onto the ground when the platform is raised by 50 cm but not when it is raised by about 75 cm. […] If a manipulation does induce jumping onto or falling on the ground, the experiment cannot be continued with the group of animals displaying this behaviour. Lower the doses if using drugs. One can prevent animals from sliding from the platform by using a ledge (not higher than 0.5 cm height) on each side adjacent to the void space. […] At 100 cm height, the test is more anxiogenic (3) and it is likely to cancel its sensitivity to experimental manipulations. Because of animal welfare regulations, it is advised that a soft carpet (polyethylene foam map about 3-5 cm thick) is laid on the ground beneath the slopes. It is preferable that it is grey or dark unicolor and covers all the visible areas of the floor within the curtain perimeter that surrounds the test apparatus.

Question: With `CC(N)Cc1ccccc1` (stereo not shown) [amphetamine] as the compound, how does the “number of crossings on the platform (motor activity) in amphetamine treated mice compared to diazepam treated mice” value (Balb/c mice) read?
Answer: Its value is “double”.

Question: And the “number of crossings on the platform (motor activity) in amphetamine treated mice compared to diazepam treated mice” value (Balb/c mice; listed as Amphetamine)?
Answer: The value was “at least two-fold”.

Question: With `C[C@]12N[C@H](Cc3ccccc31)c1ccccc12` [MK-801] as the compound, how does the effect on locomotion (mouse or rat) read?
Answer: The effect on locomotion was “induced uncoordinated, unsteady locomotion”.

Question: And the “falling from the platform” value (mouse or rat)?
Answer: The value was “falling from the platform”.
